Test results published in patent US20250041303A1, “COMBINATION THERAPY FOR CANCER TREATMENT” (INSTITUTE FOR CANCER RESEARCH D/B/A THE RESEARCH INSTITUTE …, priority 2021, published 2025).
Each block holds one molecule with its values, some of them ahead of it.

How the values were obtained:
SW837 cells = assay: CellTiter-Glo viability with Bliss drug synergy analysis in SW837 cells
KRASG12C = target: T1, KRASG12C (Homo sapiens, UniProt P01116, G12C); assay: Western blot of KRASG12C and effector signaling in SW1463 cells; assay type: cell-based; conditions: for PROTAC-mediated degradation of KRASG12C on combining with LC-2 / phosphorylation of MEK and ERK on combining with LC-2: lapatinib 5 μM or tariquidar 0.01 μM
T1 construct: endogenous in cells; host or cells: SW1463
Procedure: (§2) Samples were harvested in MIB lysis buffer (50 mM HEPES (pH 7.5), 0.5% Triton X-100, 150 mM NaCl, 1 mM EDTA, 1 mM EGTA, 10 mM sodium fluoride, 2.5 mM sodium orthovanadate, 1× protease inhibitor cocktail (Roche), and 1% each of phosphatase inhibitor cocktails 2 and 3 (Sigma)). Particulate was removed by centrifugation of lysates at 21,000 rpm for 15 minutes at 4° C. Lysates were subjected to SDS-PAGE chromatography and transferred to PVDF membranes before western blotting with primary antibodies. […] Secondary HRP-anti-rabbit and HRP-anti-mouse were obtained from ThermoFisher Scientific. SuperSignal West Pico and Femto Chemiluminescent Substrates (Thermo) were used to visualize blots.

CDK9 [1] = target: T2, CDK9 (Homo sapiens, UniProt P50750); assay: Western blot of CDK9 degradation, A1847 parental vs Thal-R cells; assay type: cell-based
Procedure: as §2

[2] = test system: A1847 and SUM159 parental and degrader-resistant cells; assay: CellTiter-Glo cell viability, parental vs degrader-resistant cells; conditions: for sensitivity of degrader-resistant cells vs parental cells (cell viability): increasing concentrations, A1847 dBET6-R, Thal-R, MZ1-R and SUM159 MZ1-R
MDR1 [3] = target: T3, MDR1 (Homo sapiens, UniProt P08183); assay: Rhodamine 123 efflux assay in degrader-resistant cells; assay type: cell-based; design: endogenous in cells; host or cells: A1847 parental, dBET6-R, Thal-R; SUM159 parental, MZ1-R
Procedure: (§1) Efflux assay was performed according to manufacturer's protocol (Millipore Sigma #ECM910). Cells were resuspended in cold efflux buffer and incubated with Rhodamine 123 for 1 hour on ice. Cells were centrifuged and treated in warm efflux buffer with DMSO or drug for 30-60 minutes, washed with cold PBS, and effluxed dye was quantified with a plate reader at an excitation wavelength of 485 nm and an emission wavelength of 530 nm.

[4] = test system: BET proteins (BRD2, BRD3 or BRD4); assay: Western blot of BET protein degradation, parental vs degrader-resistant cells; assay type: cell-based
Procedure: as §2

[5] = test system: OVCAR3, HCT116, and MOLT4 cells; assay: CellTiter-Glo cell viability, parental vs MZ1 chronically exposed cells; conditions: MZ1-R OVCAR3 and HCT116 vs parental
A1847 or SUM159 cells = assay: Colony formation assay (14 days, crystal violet); conditions: SUM159 cells expressing Flag-MDR1, MZ1 0.1 μM, with or without tariquidar 0.1 μM
SW1463 cells = assay: CellTiter-Glo viability with Bliss drug synergy analysis in SW1463 cells; assay type: cell-based
[6] = test system: SW1463 or SW837 KRASG12C cells; assay: Colony formation assay (14 days) in KRASG12C CRC cells; conditions: 1 μM
[7] = test system: HCT-15, DLD-1 and CAKI-1 cells (MDR1 overexpressing); assay: CellTiter-Glo cell viability of MDR1 overexpressing vs low MDR1 cancer cell lines; conditions: HCT-15, DLD-1, CAKI-1 vs A1847, SUM159, MOLT4; escalating doses, 5 days
[8] = test system: A1847 Parental or dBET6-R cells; assay: Western blot for cross-resistance to other PROTACs; assay type: cell-based; conditions: A1847 dBET6-R vs parental; 1 μM, 24 hours
CDK9 [9] = target: T2, CDK9; assay: Western blot of CDK9 degradation in DLD-1 cells; assay type: cell-based; design: endogenous in cells; host or cells: DLD-1; conditions: 4 hours
Procedure: as §2

MDR1 (ABCB1) = assay: Single-run proteomics (LC-MS/MS, label-free quantitation) of degrader-resistant cells; assay type: cell-based, human; conditions: A1847 cells chronically exposed to the degrader (degrader-R) vs parental
Procedure: To determine changes in cells chronically exposed to BET or CDK9 PROTACs, we performed single-run proteome analysis as previously described (Lai et al., Front. Oncol., 2020, 10, 2336). Briefly, WT or PROTAC-R cells were lysed in 50 mM HEPES pH 8.0+4% SDS, and 100 μg of proteins were digested using LysC and trypsin. Digested peptides were isolated using C-18 and PGC columns, then dried and cleaned with ethyl acetate. Three […] peptides were analyzed using LC-MS/MS. MaxQuant normalized LFQ values were imported into Perseus software (1.6.2.3) and filtered in the following manner: kinases identified by site only were removed, reverse, or potential contaminant were removed then filtered for kinases identified by >1 unique peptide. Protein LFQ values were log 2 transformed, filtered for a minimum valid number of 3, normalized using Z-scores, annotated, and subjected to a Student's t-test with comparing […]. […]
Proteolytic peptides were resuspended in 0.1% formic acid and separated with a Thermo Scientific RSLC nano Ultimate 3000 LC on a Thermo Scientific Easy-Spray C18 PepMap 75 μm×50 cm C-18 2 μm column. […] Eluted peptides were analyzed by Thermo Scientific Q Exactive or Q Exactive plus mass spectrometers utilizing a top 15 methodology in which the 15 most intense peptide precursor ions were subjected to fragmentation. […]
Raw data analysis of LFQ experiments was performed using MaxQuant software 1.6.1.0 and searched using Andromeda 1.5.6.0 against the Swiss-Prot human protein database (downloaded on Apr. 24, 2019, 20402 entries). […] LFQ quantitation was performed using MaxQuant with the following parameters; LFQ minimum ratio count: Global parameters for protein quantitation were as follows: label minimum ratio count: 1, peptides used for quantitation: unique, only use modified proteins selected and with normalized average ratio estimation selected. Match between runs was employed for LFQ quantitation and the significance threshold of the ion score was calculated based on a false discovery rate of <1%.

[10] = test system: ERBB3 and downstream AKT signaling; assay: Western blot of MEKi-induced ERBB3/AKT signaling in LS513 cells; assay type: cell-based; design: dose or concentration left out as unconfirmed; conditions: LS513, 48 hours
Procedure: as §2

MDR1 [11] = target: T3, MDR1; assay: Rhodamine 123 efflux assay in DLD-1 cells; assay type: cell-based; design: endogenous in cells; conditions: 2 μM
Procedure: as §1

DLD-1 cells = assay: Colony formation assay (14 days) in DLD-1 cells
BRD4 (BET proteins) = target: T4, BRD4 (BET proteins) (Homo sapiens, UniProt O60885); assay: Western blot of BET protein/BRD4 degradation in DLD-1 cells; assay type: cell-based; conditions: 4 hours
T4 construct: endogenous in cells; host or cells: DLD-1
Procedure: as §2

[12] = test system: A1847 dBET6-R or Thal-R cells; assay: Apoptosis by western blot in degrader-resistant A1847 cells; assay type: cell-based; conditions: 2 μM, 4 hours
Procedure: as §2

MDR1 [13] = target: T3, MDR1; assay: Rhodamine 123 efflux assay in LS513 cells; assay type: cell-based; design: endogenous in cells; conditions: 2 μM
Procedure: as §1, with “Cells were resuspended in cold efflux buffer and incubated with Rhodamine 123 for 1 hour on ice.” left out

LS513 xenografts = assay: Tumor xenograft experiment; assay type: in vivo, nude mice; conditions: MS934 50 mg/kg intraperitoneal daily, lapatinib 100 mg/kg oral gavage daily, or the combination; two weeks
Procedure: Animal studies were conducted in accordance with the guidelines set forth by the Institutional Animal Care and Use Committee. 1×10^6 LS513 cells were prepared in growth factor reduced Matrigel (Corning) 1:1 and injected into the right flank of 6- to 8-weeks old nude mice. […] For in vivo studies, MS934 was resuspended in 5% N-methyl-2-pyrrolidinone (NMP), 5% Kolliphor HS-15 (sigma) and 90% saline; and delivered by intraperitoneal injection (daily). […] Tumor volumes were evaluated every two days using a caliper and the volume was calculated applying the following formula: [(width)^2×(length)]/2.

T2 sequence (P50750 whole entry): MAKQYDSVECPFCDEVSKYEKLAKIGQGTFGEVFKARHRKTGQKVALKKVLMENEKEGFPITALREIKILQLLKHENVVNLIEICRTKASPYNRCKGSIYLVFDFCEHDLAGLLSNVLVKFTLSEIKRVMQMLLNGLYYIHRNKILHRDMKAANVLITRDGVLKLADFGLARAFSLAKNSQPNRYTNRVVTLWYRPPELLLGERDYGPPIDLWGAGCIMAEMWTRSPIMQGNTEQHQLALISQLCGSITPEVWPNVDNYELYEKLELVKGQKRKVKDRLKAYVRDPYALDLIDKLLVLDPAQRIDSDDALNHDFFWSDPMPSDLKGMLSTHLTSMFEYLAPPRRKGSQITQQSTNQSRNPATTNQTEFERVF
T2 sequence (O60563 whole entry partner): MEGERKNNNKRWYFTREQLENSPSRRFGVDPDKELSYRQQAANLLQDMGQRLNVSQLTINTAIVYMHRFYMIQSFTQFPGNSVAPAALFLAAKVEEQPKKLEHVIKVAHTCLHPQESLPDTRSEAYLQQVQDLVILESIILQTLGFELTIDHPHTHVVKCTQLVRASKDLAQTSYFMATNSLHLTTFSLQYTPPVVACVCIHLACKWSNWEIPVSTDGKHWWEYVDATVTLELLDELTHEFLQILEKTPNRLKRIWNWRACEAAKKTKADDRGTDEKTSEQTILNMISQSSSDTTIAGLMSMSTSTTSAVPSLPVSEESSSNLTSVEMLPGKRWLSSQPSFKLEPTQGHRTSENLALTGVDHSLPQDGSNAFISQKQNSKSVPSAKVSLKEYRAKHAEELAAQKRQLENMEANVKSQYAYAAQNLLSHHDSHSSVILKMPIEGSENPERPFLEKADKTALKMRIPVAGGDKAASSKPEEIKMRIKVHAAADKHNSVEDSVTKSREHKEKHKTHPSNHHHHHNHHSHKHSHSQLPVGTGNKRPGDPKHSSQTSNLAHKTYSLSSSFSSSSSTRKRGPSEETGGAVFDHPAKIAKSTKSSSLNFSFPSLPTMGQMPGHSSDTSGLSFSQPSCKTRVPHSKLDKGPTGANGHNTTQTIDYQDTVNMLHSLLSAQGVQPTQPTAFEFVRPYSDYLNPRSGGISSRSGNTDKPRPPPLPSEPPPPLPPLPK
T3 sequence (P08183 whole entry): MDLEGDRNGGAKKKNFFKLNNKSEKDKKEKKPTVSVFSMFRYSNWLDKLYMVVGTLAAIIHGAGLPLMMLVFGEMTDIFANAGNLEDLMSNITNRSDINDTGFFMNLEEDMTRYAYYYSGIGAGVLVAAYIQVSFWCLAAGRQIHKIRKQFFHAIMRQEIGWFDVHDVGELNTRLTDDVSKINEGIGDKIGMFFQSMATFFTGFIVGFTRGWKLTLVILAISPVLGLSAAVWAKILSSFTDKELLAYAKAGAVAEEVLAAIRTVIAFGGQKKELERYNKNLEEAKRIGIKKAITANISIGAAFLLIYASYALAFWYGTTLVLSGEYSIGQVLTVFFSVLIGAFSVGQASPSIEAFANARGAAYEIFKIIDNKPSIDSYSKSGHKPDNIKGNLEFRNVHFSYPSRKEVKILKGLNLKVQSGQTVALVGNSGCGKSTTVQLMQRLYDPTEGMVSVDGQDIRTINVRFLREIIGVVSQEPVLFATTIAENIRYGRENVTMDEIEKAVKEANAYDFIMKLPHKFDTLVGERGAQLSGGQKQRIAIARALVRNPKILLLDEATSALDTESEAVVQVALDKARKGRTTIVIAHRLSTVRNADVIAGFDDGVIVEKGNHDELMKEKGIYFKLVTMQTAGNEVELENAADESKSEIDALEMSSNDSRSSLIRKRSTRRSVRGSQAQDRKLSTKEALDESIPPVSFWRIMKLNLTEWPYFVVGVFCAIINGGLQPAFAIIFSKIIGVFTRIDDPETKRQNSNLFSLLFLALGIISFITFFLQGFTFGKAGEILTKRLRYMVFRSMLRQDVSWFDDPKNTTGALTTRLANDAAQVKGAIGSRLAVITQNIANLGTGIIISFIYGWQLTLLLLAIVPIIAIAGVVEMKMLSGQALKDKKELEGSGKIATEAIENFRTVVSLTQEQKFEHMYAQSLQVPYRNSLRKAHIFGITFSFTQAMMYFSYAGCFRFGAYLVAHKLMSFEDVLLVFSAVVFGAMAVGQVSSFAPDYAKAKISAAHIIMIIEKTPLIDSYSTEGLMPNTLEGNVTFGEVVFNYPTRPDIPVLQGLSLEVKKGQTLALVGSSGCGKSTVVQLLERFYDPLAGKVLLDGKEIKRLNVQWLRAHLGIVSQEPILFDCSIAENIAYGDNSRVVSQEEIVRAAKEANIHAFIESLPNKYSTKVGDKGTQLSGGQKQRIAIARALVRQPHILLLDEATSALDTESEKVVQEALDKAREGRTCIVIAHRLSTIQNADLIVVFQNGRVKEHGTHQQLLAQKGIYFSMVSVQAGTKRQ

phosphorylation of MEK and ERK on combining with LC-2 (KRASG12C; SW1463, 48 hours): reduced phosphorylation of MEK and ERK
MDR1 drug efflux pump activity (efflux of Rhodamine 123) (MDR1 [3]; A1847 dBET6-R, Thal-R or MZ1-R SUM159 cells compared to parental cells): reduced MDR1 drug efflux pump activity
SMILES: COc1cc2c(cc1OC)CN(CCc1ccc(NC(=O)c3cc(OC)c(OC)cc3NC(=O)c3cnc4ccccc4c3)cc1)CC2 [tariquidar]
drug synergy with LC-2 (SW837 cells): marginal synergy
PROTAC-mediated degradation of KRASG12C on combining with LC-2 (KRASG12C; SW1463, 48 hours): improved PROTAC-mediated degradation of KRASG12C reducing protein levels
degradation of CDK9 in degrader-resistant cells on MDR1 inhibition (CDK9 [1]; tariquidar 0.1 μM, 24 hours, A1847 Thal-R): restored degradation of BET proteins or CDK9
sensitivity of degrader-resistant cells vs parental cells (cell viability) [2]: more sensitive
degradation of BET proteins in degrader-resistant cells on MDR1 inhibition ([4]; tariquidar 0.1 μM, 24 hours, A1847 dBET6-R, SUM159 MZ1-R (maintained in PROTAC)): restored degradation of BET proteins or CDK9
sensitivity of MZ1-resistant cells (cell viability) [5]: increased sensitivity
colony formation with forced expression of Flag-MDR1 (A1847 or SUM159 cells): could be blocked by tariquidar-treatment
drug synergy with LC-2 (SW1463 cells): marginal synergy

KRASG12C protein levels, single agent (KRASG12C; SW1463 cells, 1 μM): had no impact on KRASG12C protein levels
SMILES: C=C(F)C(=O)N1CCN(c2nc(OC[C@@H]3CCCN3CCCOCCC(=O)N[C@H](C(=O)N3C[C@H](O)C[C@H]3C(=O)NCc3ccc(-c4scnc4C)cc3)C(C)(C)C)nc3c2CCN(c2cccc4cccc(Cl)c24)C3)C[C@@H]1CC#N [LC-2]
sensitivity (colony formation) [6]: intrinsic resistance

degradation efficiency of CDK9 on co-treatment with tariquidar (CDK9 [9]; DLD-1, increasing doses plus tariquidar 0.1 μM): improved the degradation efficiency
SMILES: CC(C)(C)c1cnc(CSc2cnc(NC(=O)C3CCN(CC(=O)NCCOCCOCCOCCNc4cccc5c4C(=O)N(C4CCC(=O)NC4=O)C5=O)CC3)s2)o1 (stereo not drawn) [Thal SNS 032]
cell viability of MDR1 overexpressing cells [7]: did not reduce cell viability to the extent of cancer cell lines expressing low or no detectable MDR1 protein
CDK9 protein levels and phosphorylation of RNA polymerase (S2) (CDK9 [1]; chronically exposed A1847 cells vs parental, increasing doses, 24 hours): did not inhibit cell viability or reduce CDK9 protein levels
acquired resistance (cell viability dose-response) ([2]; A1847 parental vs chronically exposed cells, escalating doses, 5 days): acquire resistance
cross-resistance to PROTACs targeting other proteins [8]: cross-resistant
reduction of intended degrader target (CDK9) (CDK9 [9]; DLD-1, single agent, escalating doses, vs A1847 or MOLT4): did not reduce the intended degrader target to the extent observed with degrader-sensitive A1847 or MOLT4 cells
MDR1 protein levels upregulated relative to parental cell lines by LFQ analysis (MDR1 (ABCB1)): ~2.5 fold

phosphorylation of MEK and ERK on combining with LC-2 (KRASG12C; SW1463, 48 hours): reduced phosphorylation of MEK and ERK
reduction in concentrations of dBET6 required to degrade BRD4 when combined (BRD4 (BET proteins); combined with the compound at 2 μM): 100 fold
degradation of CDK9 by Thal SNS 032 on combined treatment (CDK9 [9]; DLD-1, increasing doses of Thal SNS 032 plus the compound at 2 μM): improving degradation of CDK9
SMILES: CS(=O)(=O)CCNCc1ccc(-c2ccc3ncnc(Nc4ccc(OCc5cccc(F)c5)c(Cl)c4)c3c2)o1 [lapatinib]
MEK inhibitor-induced ERBB3 and downstream AKT and RAF signaling [10]: could be blocked by lapatinib treatment
MDR1 drug efflux activity (Rhodamine 123 efflux) (MDR1 [11]): reduced MDR1 drug efflux activity similar to tariquidar-treatment
PROTAC-mediated degradation of KRASG12C on combining with LC-2 (KRASG12C; SW1463, 48 hours): improved PROTAC-mediated degradation of KRASG12C reducing protein levels
CRAF and AKT phosphorylation and apoptosis on combining with LC-2 (KRASG12C; SW1463, lapatinib 5 μM, 48 hours): uniquely reduced CRAF and AKT phosphorylation, as well as induced apoptosis
degradation of CDK9 in degrader-resistant cell lines (CDK9 [1]; A1847 Thal-R vs parental, 2 μM, 4 hours): resulted in degradation of BET proteins (FIG. 5, Panel G; FIG. 12, Panels E and F) or CDK9
sensitivity of degrader-resistant cells vs parental cells (cell viability) [2]: more sensitive
growth inhibition of colonies on combination with Thal SNS 032 (DLD-1 cells; compound at 2 μM, 14 days): enhancing growth inhibition of colonies
colony formation on co-treatment with dBET6 (DLD-1 cells; dBET6 0.1 μM plus the compound at 2 μM, 14-day period): sensitized DLD-1 cells to dBET6
MDR1 drug efflux activity (Rhodamine 123 efflux) (MDR1 [3]; A1847 dBET6-R or Thal-R cell lines, 2 μM): reduced MDR1 drug efflux activity similar to that observed with tariquidar
dBET6-mediated degradation of BRD4 on combined treatment (BRD4 (BET proteins); increasing doses of dBET6 plus the compound at 2 μM): improved dBET6-mediated degradation of BRD4
degradation of BET proteins in degrader-resistant cell lines ([4]; A1847 dBET6-R or MZ1-R vs parental, 2 μM, 4 hours): resulted in degradation of BET proteins
apoptosis in degrader-resistant cell lines [12]: resulted in apoptosis similar to tariquidar treatment
MDR1 drug efflux activity (Rhodamine 123 efflux) (MDR1 [13]): reduced MDR1 drug efflux activity similar to tariquidar
tumor growth (tumor volume) (LS513 xenografts): ineffective
